Experimental data reported in US6121285A, “Substituted aminocycloalkylpyrrolidine derivatives and cis-substituted aminocycloalkylpyrrolidine derivatives” (Daiichi Pharmaceutical Co., Ltd., priority 1995, dated 2000).
≈ marks a conversion by molar mass, not a printed value. Like-named read-outs stand apart in the source and are kept apart here.

How the values were obtained:
[1] = system: Slc:ddy five week male mice; assay: Acute toxicity, intravenous administration to mice; type: in vivo; details: for Number of death: hydrochloride in distilled water; for acute toxicity result in words: same test as cis/trans (cis: 0/5 deaths)
Procedure: A solution of 5-amino-7-[4-(R)-(1-aminocyclopropyl)-3-(S)-fluoro-1-pyrrolidinyl]-6-fluoro-1-[2-(S)-fluoro-1-(R)-cyclopropyl]-1,4-dihydro-8-methyl-4-oxoquinoline-3-carboxylic acid (abbreviated as cis) hydrochloride of Example 15 or 5-amino-7-[4-(R)-(1-aminocyclopropyl)-3-(R)-fluoro-1-pyrrolidinyl]-6-fluoro-1-[2-(S)-fluoro-1-(R)-cyclopropyl]-1,4-dihydro-8-methyl-4-oxoquinoline-3-carboxylic acid (abbreviated as trans) hydrochloride in distilled water for injection was administered intravenously to Slc:ddy five week male mice (five mice per group) and the symptoms are observed.

[2] = system: Ser. marcescens, 10100; assay: Antimicrobial activity (MIC), standard method of the Japan Society of Chemotherapy; type: cell-based
Procedure: (§1) Examples of the first and second aspects of the present invention are given below by way of illustration and not by way of limitation. In-this regard, the antibacterial and antimicrobial activities of the compounds of interest were measured in accordance with the standard method specified by the Japan Society of Chemotherapy. The results are shown in Tables 1 to 5 as a minimum inhibitory concentration (MIC,μg/ml). Unless otherwise indicated, all percents (%) are by weight.

[3] = system: Ps. maltophilia, IID-1275; assay: as above; type: cell-based
Procedure: as §1

[4] = system: Str. pyogenes, G-36; assay: as above; type: cell-based
Procedure: as §1

[5] = system: E. coli, NIHJ; assay: as above; type: cell-based
Procedure: as §1

[6] = system: Ps. aeruginosa, 32121; assay: as above; type: cell-based
Procedure: as §1

[7] = system: Ps. aeruginosa, 32104; assay: as above; type: cell-based; details: for minimum inhibitory concentration (MIC): Ps. aeruginosa
Procedure: as §1

[8] = system: S. epidermidis, 56500; assay: as above; type: cell-based
Procedure: as §1

[9] = system: Pr. mirabilis, IFO-3849; assay: as above; type: cell-based
Procedure: as §1

[10] = system: S. aureus, 209P; assay: as above; type: cell-based
Procedure: as §1

[11] = system: S. aureus, 870307; assay: as above; type: cell-based
Procedure: as §1

[12] = system: S. flexneli, 2A 5503; assay: as above; type: cell-based; details: for minimum inhibitory concentration (MIC): S. flexneli, 2A 5503
Procedure: as §1

[13] = system: Pr. vulgaris, 08601; assay: as above; type: cell-based; details: for MIC: Proteus vulgaris, read-out: minimum inhibitory concentration (MIC)
Procedure: as §1

[14] = system: Str. faecalis, ATCC-19433; assay: as above; type: cell-based
Procedure: as §1

[15] = 150 mg/kg, * = test stopped when second mouse died
[16] = Staphylococcus epidermidis, S. epidermidis, 56500, read-out: minimum inhibitory concentration (MIC)
[17] = Staphylococcus aureus, read-out: minimum inhibitory concentration (MIC)

SMILES: Cc1c(N2C[C@@H](F)[C@@H](C3(N)CC3)C2)c(F)c(N)c2c(=O)c(C(=O)O)cn([C@@H]3C[C@@H]3F)c12.Cl [Example 15, 5-Amino-7-[4-(R)-(1-aminocyclopropyl)-3-(S)-fluoro-1-pyrrolidinyl]-6-fluoro-1-[2-(S)-fluoro-1-(R)-cyclopropyl]-1,4-dihydro-8-methyl-4-oxoquinoline-3-carboxylic acid hydrochloride]
- Number of death [1, 15]: 0/5

SMILES: Cc1c(N2C[C@H](C)[C@@H](C3(N)CC3)C2)c(F)c(N)c2c(=O)c(C(=O)O)cn([C@@H]3C[C@@H]3F)c12 [Example 3, 5-Amino-7-[(3R,4R)-3-(1-aminocyclopropyl)-4-methyl-1-pyrrolidinyl]-6-fluoro-1-[(1R,2S)-2-fluorocyclopropyl]-1,4-dihydro-8-methyl-4-oxoquinoline-3-carboxylic acid]
- MIC ([2]; Serratia marcescens, read-out: minimum inhibitory concentration (MIC)): 0.1 µg/mL (≈ 0.231 µM)
- MIC ([3]; Stenotrophomonas maltophilia, IID1275, read-out: minimum inhibitory concentration (MIC)): 0.1 µg/mL (≈ 0.231 µM)
- MIC ([4]; Streptococcus pyogenes, G36, read-out: minimum inhibitory concentration (MIC)): ≤ 0.003 µg/mL
- MIC ([5]; Escherichia coli, read-out: minimum inhibitory concentration (MIC)): ≤ 0.003 µg/mL
- MIC ([6]; Pseudomonas aeruginosa, read-out: minimum inhibitory concentration (MIC)): 0.1 µg/mL (≈ 0.231 µM)
- MIC ([7]; Pseudomonas aeruginosa, 32104, Ps. aeruginosa, read-out: minimum inhibitory concentration (MIC)): 0.2 µg/mL (≈ 0.462 µM)
- MIC [8, 16]: ≤ 0.003 µg/mL
- MIC ([9]; Proteus mirabilis, IFO3849, read-out: minimum inhibitory concentration (MIC)): 0.05 µg/mL (≈ 0.116 µM)
- MIC [10, 17]: ≤ 0.003 µg/mL
- MIC [11, 17]: 0.025 µg/mL (≈ 0.0578 µM)
- MIC ([12]; read-out: minimum inhibitory concentration (MIC), S. flexneli, 2A 5503): ≤ 0.003 µg/mL
- MIC [13]: 0.025 µg/mL (≈ 0.0578 µM)
- MIC ([14]; Enterococcus faecalis, ATCC19433, read-out: minimum inhibitory concentration (MIC)): 0.025 µg/mL (≈ 0.0578 µM)

SMILES: C[C@H]1COc2c(N3C[C@@H](F)[C@@H](C4(N)CC4)C3)c(F)c(N)c3c(=O)c(C(=O)O)cn1c23 [Example 21, 8-Amino-10-[4-(R)-(1-aminocyclopropyl)-3-(S)-fluoro-1-pyrrolidinyl]-9-fluoro-2,3-dihydro-3-(S)-methyl-7-oxo-7H-pyrido[1,2,3-de][1,4]benzoxazine-6-carboxylic acid]
- acute toxicity result in words ([1]; 150 mg/kg): same result
- MIC ([8]; Staphylococcus epidermidis, 56500, read-out: minimum inhibitory concentration (MIC)): 0.013 µg/mL (≈ 0.0309 µM)

SMILES: COc1c(N2C[C@@H](F)[C@@H](C3(N)CC3)C2)c(F)c(N)c2c(=O)c(C(=O)O)cn([C@@H]3C[C@@H]3F)c12 [Example 16, 5-Amino-7-[4-(R)-(1-aminocyclopropyl)-3-(S)-fluoro-1-pyrrolidinyl]-6-fluoro-1-[2-(S)-fluoro-1-(R)-cyclopropyl]-1,4-dihydro-8-methoxy-4-oxoquinoline-3-carboxylic acid]
- acute toxicity result in words ([1]; 150 mg/kg): same result

SMILES: COc1c(N2C[C@@H](F)[C@@H](C3(N)CC3)C2)c(F)cc2c(=O)c(C(=O)O)cn([C@@H]3C[C@@H]3F)c12 [Example 12, 7-[4-(R)-(1-Aminocyclopropyl)-3-(S)-fluoro-1-pyrrolidinyl]-6-fluoro-1-[2-(S)-fluoro-1-(R)-cyclopropyl]-1,4-dihydro-8-methoxy-4-oxoquinoline-3-carboxylic acid]
- acute toxicity result in words ([1]; 150 mg/kg): same result
- minimum inhibitory concentration (MIC) ([7]; listed as 18): 0.20 µg/mL (≈ 0.457 µM)
- minimum inhibitory concentration (MIC) [12]: 0.013 µg/mL (≈ 0.0297 µM)
- minimum inhibitory concentration (MIC) ([12]; listed as 18): 0.006 µg/mL (≈ 0.0137 µM)
- MIC [13]: 0.006 µg/mL (≈ 0.0137 µM)

SMILES: C[C@H]1COc2c(N3C[C@@H](F)[C@@H](C4(N)CC4)C3)c(F)cc3c(=O)c(C(=O)O)cn1c23 [Example 17, 10-[4-(R)-(1-Aminocyclopropyl)-3-(S)-fluoro-1-pyrrolidinyl]-9-fluoro-2,3-dihydro-3-(S)-methyl-7-oxo-7H-pyrido[1,2,3-de][1,4]benzoxazine-6-carboxylic acid]
- acute toxicity result in words ([1]; 150 mg/kg): same result

SMILES: Cc1c(N2C[C@@H](CO)[C@@H](C3(N)CC3)C2)c(F)c(N)c2c(=O)c(C(=O)O)cn(C3CC3)c12 (relative stereo) [Example 14, 5-Amino-7-[cis-4-(1-aminocyclopropyl)-3-hydroxymethyl-1-pyrrolidinyl]-1-cyclopropyl-6-fluoro-1,4-dihydro-8-methyl-4-oxoquinoline-3-carboxylic acid]
- acute toxicity result in words ([1]; 150 mg/kg): same result

SMILES: Cc1c(N2C[C@H](F)[C@@H](C3(N)CC3)C2)c(F)c(N)c2c(=O)c(C(=O)O)cn([C@@H]3C[C@@H]3F)c12.Cl [Example 5, 5-Amino-7-[4-(R)-(1-aminocyclopropyl)-3-(R)-fluoro-1-pyrrolidinyl]-6-fluoro-1-[2-(S)-fluoro-1-(R)-cyclopropyl]-1,4-dihydro-8-methyl-4-oxoquinoline-3-carboxylic acid hydrochloride]
- Number of death ([1]; 50 mg/kg): 0/5
- Number of death ([1]; 100 mg/kg, * = test stopped when second mouse died): 2/2
- Number of death [1, 15]: 2/2
- MIC [8, 16]: ≤ 0.003 µg/mL

SMILES: Cc1c(N2C[C@@H](F)[C@@H](C3(N)CCC3)C2)c(F)c(N)c2c(=O)c(C(=O)O)cn([C@@H]3C[C@@H]3F)c12 (single isomer, unassigned; isomer b) [Example 13]
- acute toxicity result in words ([1]; 150 mg/kg): same result
- minimum inhibitory concentration (MIC) [2]: 0.20 µg/mL (≈ 0.444 µM)
- minimum inhibitory concentration (MIC) [3]: 0.20 µg/mL (≈ 0.444 µM)
- minimum inhibitory concentration (MIC) [4]: 0.006 µg/mL (≈ 0.0133 µM)
- minimum inhibitory concentration (MIC) [5]: ≤ 0.003 µg/mL
- minimum inhibitory concentration (MIC) [6]: 0.10 µg/mL (≈ 0.222 µM)
- minimum inhibitory concentration (MIC) [7]: 0.20 µg/mL (≈ 0.444 µM)
- minimum inhibitory concentration (MIC) ([8]; S. epidermidis, 56500): 0.006 µg/mL (≈ 0.0133 µM)
- minimum inhibitory concentration (MIC) [9]: 0.05 µg/mL (≈ 0.111 µM)
- minimum inhibitory concentration (MIC) [10]: ≤ 0.003 µg/mL
- minimum inhibitory concentration (MIC) [11]: 0.05 µg/mL (≈ 0.111 µM)
- minimum inhibitory concentration (MIC) [12]: 0.006 µg/mL (≈ 0.0133 µM)
- minimum inhibitory concentration (MIC) [13]: 0.025 µg/mL (≈ 0.0555 µM)
- minimum inhibitory concentration (MIC) [14]: 0.025 µg/mL (≈ 0.0555 µM)
